Like-named read-outs stand apart in the source and are kept apart here.
How the values were obtained:
Assay type in all cases: in vivo
[1] = system: ducksalad (Heteranthera limosa); assay: Test B flooded paddy test; conditions: Heteranthera limosa, 250 g ai/ha, Flood, read-out: Ducksalad plant response rating
Outline: (§1)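 Response scored visually against untreated controls, 0 = no effect and 100 = complete control, 13–15 d after treatment in the greenhouse. Compounds added to paddy water held 3 cm above soil surface. Treatment given at 2-leaf stage.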

[2] = system: barnyardgrass (Echinochloa crus-galli); assay: Test B flooded paddy test; conditions: Echinochloa crus-galli, 250 g ai/ha, Flood, read-out: Barnyardgrass plant response rating
Outline: as §1

rice (Oryra sativa) = assay: Test B flooded paddy test; conditions: Oryza sativa, 250 g ai/ha, Flood, read-out: Rice plant response rating
Outline: as §1

[3] = system: sedge, umbrella (small-flower umbrella sedge, Cyperus difformis); assay: Test B flooded paddy test; conditions: Cyperus difformis, 250 g ai/ha, Flood, read-out: Sedge, Umbrella plant response rating
Outline: as §1

[4] = system: giant foxtail (Setaria faberii); assay: Test A postemergence; conditions: Setaria faberi, post-emergence, 240 h; for pest or weed control at 125 g/ha: 125 g ai/ha
Outline: (§2)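 Treatment is preemergence as a directed soil spray after planting, or postemergence at the one- to two-leaf stage, with test chemical in a non-phytotoxic solvent mixture plus surfactant. Plants stay in the greenhouse about 10 d before visual injury scoring on a 0 to 100 scale versus untreated controls.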

[5] = system: wheat (Triticum aestivum); assay: Test A postemergence; conditions: Triticum aestivum, post-emergence, 240 h; for plant injury at 125 g/ha: 125 g ai/ha
Outline: as §2

[6] = system: Galium (catchweed bedstraw, Galium aparine); assay: Test A postemergence; conditions: Galium, post-emergence, 240 h; for pest or weed control at 125 g/ha: 125 g ai/ha
Outline: as §2

[7] = system: pigweed (Amaranthus retroflexus); assay: Test A postemergence; conditions: Amaranthus retroflexus, post-emergence, 240 h; for pest or weed control at 125 g/ha: 125 g ai/ha
Outline: as §2

[8] = system: ryegrass, Italian (Italian ryegrass, Lolium multiflorum); assay: Test A postemergence; conditions: Lolium multiflorum, post-emergence, 240 h; for pest or weed control at 125 g/ha: 125 g ai/ha
Outline: as §2

[9] = system: barnyardgrass (Echinochloa crus-galli); assay: Test A postemergence; conditions: Echinochloa crus-galli, post-emergence, 240 h; for pest or weed control at 125 g/ha: 125 g ai/ha
Outline: as §2

[10] = system: blackgrass (Alopecurus myosuroides); assay: Test A postemergence; conditions: Alopecurus myosuroides, post-emergence, 240 h; for pest or weed control at 125 g/ha: 125 g ai/ha
Outline: as §2

Kochia (Kochia scoparia) = assay: Test A postemergence; conditions: Bassia scoparia, post-emergence, 240 h; for pest or weed control at 125 g/ha: 125 g ai/ha
Outline: as §2

corn (Zea mays) = assay: Test A postemergence; conditions: Zea mays, post-emergence, 240 h
Outline: as §2

[11] = system: ragweed (common ragweed, Ambrosia elatior); assay: Test A postemergence; conditions: Ambrosia artemisiifolia, post-emergence, 240 h; for pest or weed control at 125 g/ha: 125 g ai/ha
Outline: as §2

[12] = system: barnyardgrass (Echinochloa crus-galli); assay: Test A preemergence; conditions: Echinochloa crus-galli, pre-emergence, 240 h, preemergence, read-out: Barnyardgrass plant response rating; for pest or weed control at 125 g/ha: 125 g ai/ha; for pest or weed control at 500 g/ha: 500 g ai/ha
Outline: as §2

[13] = 0 to 100 scale where 0 is no effect and 100 is complete control
[14] = scale of 0 to 100 where 0 is no effect and 100 is complete control

## CCc1ccc([C@H]2CNC(=O)[C@@H]2C(=O)Nc2cccc(F)c2C)cc1 [Compound 1177]
[1]; [13]
  pest or weed control at 250 g/ha: 95%
[2]; [13]
  pest or weed control at 250 g/ha: 70%
Rice (Oryra sativa); [13]
  pest or weed control at 250 g/ha: 20%
[3]; [13]
  pest or weed control at 250 g/ha: 0%
[4]; postemergence, visual injury vs untreated controls after approx. 10 d, 0 = no effect, 100 = complete control, read-out: Foxtail, Giant plant response rating (0 to 100 scale)
  pest or weed control at 125 g/ha: 50%
[4]; 500 g ai/ha, postemergence, 0 to 100 scale, 0 is no effect, 100 is complete control, read-out: Foxtail, Giant plant response rating
  pest or weed control at 500 g/ha: 70%
[5]; postemergence, visual injury vs untreated controls after approx. 10 d, 0 = no effect, 100 = complete control, read-out: Wheat plant response rating (0 to 100 scale)
  plant injury at 125 g/ha: 20%
[5]; 500 g ai/ha, postemergence, 0 to 100 scale, 0 is no effect, 100 is complete control, read-out: Wheat plant response rating
  plant injury at 500 g/ha: 30%
[6]; postemergence, visual injury vs untreated controls after approx. 10 d, 0 = no effect, 100 = complete control, read-out: Galium plant response rating (0 to 100 scale)
  pest or weed control at 125 g/ha: 20%
[6]; 500 g ai/ha, postemergence, 0 to 100 scale, 0 is no effect, 100 is complete control, read-out: Galium plant response rating
  pest or weed control at 500 g/ha: 50%
[7]; postemergence, visual injury vs untreated controls after approx. 10 d, 0 = no effect, 100 = complete control, read-out: Pigweed plant response rating (0 to 100 scale)
  pest or weed control at 125 g/ha: 0%
[7]; 500 g ai/ha, postemergence, 0 to 100 scale, 0 is no effect, 100 is complete control, read-out: Pigweed plant response rating
  pest or weed control at 500 g/ha: 0%
[8]; postemergence, visual injury vs untreated controls after approx. 10 d, 0 = no effect, 100 = complete control, read-out: Ryegrass, Italian plant response rating (0 to 100 scale)
  pest or weed control at 125 g/ha: 40%
[8]; 500 g ai/ha, postemergence, 0 to 100 scale, 0 is no effect, 100 is complete control, read-out: Ryegrass, Italian plant response rating
  pest or weed control at 500 g/ha: 40%
[9]; postemergence, visual injury vs untreated controls after approx. 10 d, 0 = no effect, 100 = complete control, read-out: Barnyardgrass plant response rating (0 to 100 scale)
  pest or weed control at 125 g/ha: 70%
[9]; 500 g ai/ha, postemergence, 0 to 100 scale, 0 is no effect, 100 is complete control, read-out: Barnyardgrass plant response rating
  pest or weed control at 500 g/ha: 90%
[10]; postemergence, visual injury vs untreated controls after approx. 10 d, 0 = no effect, 100 = complete control, read-out: Blackgrass plant response rating (0 to 100 scale)
  pest or weed control at 125 g/ha: 60%
[10]; 500 g ai/ha, postemergence, 0 to 100 scale, 0 is no effect, 100 is complete control, read-out: Blackgrass plant response rating
  pest or weed control at 500 g/ha: 70%
Kochia (Kochia scoparia); postemergence, visual injury vs untreated controls after approx. 10 d, 0 = no effect, 100 = complete control, read-out: Kochia plant response rating (0 to 100 scale)
  pest or weed control at 125 g/ha: 0%
Kochia (Kochia scoparia); 500 g ai/ha, postemergence, 0 to 100 scale, 0 is no effect, 100 is complete control, read-out: Kochia plant response rating
  pest or weed control at 500 g/ha: 0%
Corn (Zea mays); 125 g ai/ha, postemergence, visual injury vs untreated controls after approx. 10 d, 0 = no effect, 100 = complete control, read-out: Corn plant response rating (0 to 100 scale)
  plant injury at 125 g/ha: 20%
Corn (Zea mays); 500 g ai/ha, postemergence, 0 to 100 scale, 0 is no effect, 100 is complete control, read-out: Corn plant response rating
  plant injury at 500 g/ha: 40%
[11]; postemergence, visual injury vs untreated controls after approx. 10 d, 0 = no effect, 100 = complete control, read-out: Ragweed plant response rating (0 to 100 scale)
  pest or weed control at 125 g/ha: 0%
[11]; 500 g ai/ha, postemergence, 0 to 100 scale, 0 is no effect, 100 is complete control, read-out: Ragweed plant response rating
  pest or weed control at 500 g/ha: 0%
[12]; 0 to 100 scale where 0 is no effect and 100 is complete control, approx. 10 d
  pest or weed control at 125 g/ha: 70%
[12]; [13]
  pest or weed control at 500 g/ha: 100%

## Cc1cc([C@H]2CN(C)C(=O)[C@@H]2C(=O)Nc2ccc(F)cc2F)ccc1Cl [Compound 930]
[1]; [14]
  pest or weed control at 250 g/ha: 80%
[2]; [14]
  pest or weed control at 250 g/ha: 50%
Rice (Oryra sativa); [14]
  pest or weed control at 250 g/ha: 0%
[3]; [14]
  pest or weed control at 250 g/ha: 0%
[4]; Postemergence, visual injury after approximately 10 d, 0 to 100 scale where 0 is no effect and 100 is complete control, read-out: Plant response rating, Foxtail, Giant
  pest or weed control at 125 g/ha: 80%
[5]; Postemergence, visual injury after approximately 10 d, 0 to 100 scale where 0 is no effect and 100 is complete control, read-out: Plant response rating, Wheat
  plant injury at 125 g/ha: 30%
[6]; Postemergence, visual injury after approximately 10 d, 0 to 100 scale where 0 is no effect and 100 is complete control, read-out: Plant response rating, Galium
  pest or weed control at 125 g/ha: 40%
[7]; Postemergence, visual injury after approximately 10 d, 0 to 100 scale where 0 is no effect and 100 is complete control, read-out: Plant response rating, Pigweed
  pest or weed control at 125 g/ha: 30%
[8]; Postemergence, visual injury after approximately 10 d, 0 to 100 scale where 0 is no effect and 100 is complete control, read-out: Plant response rating, Ryegrass, Italian
  pest or weed control at 125 g/ha: 30%
[9]; Postemergence, visual injury after approximately 10 d, 0 to 100 scale where 0 is no effect and 100 is complete control, read-out: Plant response rating, Barnyardgrass
  pest or weed control at 125 g/ha: 80%
[10]; Postemergence, visual injury after approximately 10 d, 0 to 100 scale where 0 is no effect and 100 is complete control, read-out: Plant response rating, Blackgrass
  pest or weed control at 125 g/ha: 20%
Kochia (Kochia scoparia); Postemergence, visual injury after approximately 10 d, 0 to 100 scale where 0 is no effect and 100 is complete control, read-out: Plant response rating, Kochia
  pest or weed control at 125 g/ha: 20%
Corn (Zea mays); 125 g ai/ha, Postemergence, visual injury after approximately 10 d, 0 to 100 scale where 0 is no effect and 100 is complete control
  Corn plant response rating (crop injury, 0 = no effect, 100 = complete kill) at 125 g/ha: 40%
[11]; Postemergence, visual injury after approximately 10 d, 0 to 100 scale where 0 is no effect and 100 is complete control, read-out: Plant response rating, Ragweed
  pest or weed control at 125 g/ha: 0%
[12]; [13]
  pest or weed control at 125 g/ha: 90%
[12]; visual injury rating about 10 d after treatment, 0 to 100 scale (0 no effect, 100 complete control)
  pest or weed control at 500 g/ha: 90%

Reference: US12077503B2, “Substituted cyclic amides and their use as herbicides” (FMC CORPORATION, priority 2015, dated 2024)
